Values quoted from earlier work as cited in US9084838B2, “Feminine care absorbent article for use in warm climates” (Kimberly-Clark Worldwide, Inc., priority 2011, dated 2015).

Details: at 25° C.

In the case of `O=C(O)CC(O)(CC(=O)O)C(=O)O` [citric acid], the pKa2 is listed as 4.76 and the pKa3 is listed as 6.40.
